Laboratory results published in patent US20100041896A1, “Macrolide compound with bis-oxazoly” (priority 2008, published 2010).
≈ marks a conversion by molar mass, not a printed value.

Legend:
[1] = test system: K562 cells; assay: anti-tumor in vitro experiment, K562 cell growth inhibition (trypan blue counting); assay type: cell-based; settings: Homo sapiens, 48 hours at 37° C., trypan blue living-cell count, read-out: median inhibitory concentration IC50
Procedure: Implementation case 3: anti-tumor in vitro experiments
The cultivation condition for K562 cells (human chronic myeloid leukemia leap cell lines) is: the volume fraction of 10 percent of the calf serum RPMI1640, penicillin (100 IU/ml) and streptomycin (100 μg/ml), at 37° C., 5% CO2 incubation box for cultivation. Take the logarithm growth period cells used for the inhibition rate experiments, with the concentration of cells inoculated 2.5×10^5/ml. In the 96-pore cultivation board, K562 cells are vaccinated with the inoculation amount of about 5×10^4/pore, 200 μl each pore. The drug is dissolved in dimethyl sulfoxide (DMSO), making the storage fluid of 10 mg/ml. Four groups are set up in this experiment, adding different concentrations of drugs respectively, so that the final concentrations are respectively 0.1, 1, 10, 100 μg/ml. There is no drug added for the reference control group, and three parallel holes are set up for each group, cultivating at 37° C. for 48 hours. Taking 0.4 percent trypan blue liquid (take 4 g trypan blue and put it into 100 ml PBS, making four percent trypan blue raw fluid, filtrated and disinfected, stored in 4° C. refrigerator, ready to use. Concentration is of 0.4 percent) and the cell suspension fluid, 50 μl respectively, mixing, and then take appropriate mixed fluid to fill in cell counting board, counting the four big grid non-coloring living cells. […]

[2] = Solubility (physical and chemical properties); assay type: physicochemical

## C/C1=C/[C@H](C)C[C@H](C)[C@H](Cc2cnco2)OC(=O)/C(C)=C\[C@H](C)C[C@H](C)C(Cc2cnco2)OC1=O (stereo partly shown) [FW-04-806]
[1]
  IC50: 12.4 µg/mL (≈ 24.8 µM)
[2]; in methyl alcohol, ethyl acetate and dimethylsulfoxide
  Solubility: soluble
[2]; in n-hexane or petroleum ether
  Solubility: nearly insoluble
[2]; in water
  Solubility: insoluble
